Laboratory results taken from patent US20110135671A1, “PURINE DERIVATIVES FOR USE IN THE TREATMENT OF ALLERGIC, INFLAMMATORY AND INFECTIOUS DISEASES” (GLAXOSMITHKLINE LLC, priority 2008, published 2011).
Structures can show the parent of a compound that is named as a salt.

test system: Interferon-α; assay: Induction of Interferon-α using cryopreserved human PBMCs; type: cell-based; settings: PBMC, 24 h, normalised to 1 uM resiquimod, read-out: mean pEC50 for induction of Interferon-α (converted)
Method: Assay for the Induction of Interferon-α using Cryopreserved Human Peripheral Blood Mononuclear Cells (PBMCs)
Compounds were dissolved in DMSO. Serial 2-fold dilutions with DMSO were prepared and 0.25 μl dispensed into 384-well clear Greiner polypropylene plates.
Blood samples of up to 200 ml were obtained from healthy human donors. Whole blood in 25 ml volumes was overlaid onto 15 ml Ficoll gradients in Leucosep tubes, and centrifuged at 1000 g for 20 min. Cells in the band at the plasma/histopaque interface were carefully removed and washed twice with PBS (centrifuged at 400 g for 5 min to harvest). The final pellet was resuspended in freezing medium (90% Heat-inactivated serum, 10% DMSO) to a cell concentration of 4×10^7 cells/ml. The resuspended cells were then cryopreserved (frozen) using a rate controlled freezer, and stored at −140° C. for up to 4 months.
Incubation and Assay for Interferon-α
Immediately prior to assay, vials of cryopreserved (frozen) PBMCs were thawed rapidly in a water bath at 37° C. A 1:10 dilution of the cells in trypan blue was prepared and counted. The PBMCs were then diluted in growth media [RPMI 1640 containing 10% fetal calf serum (invitrogen), Penicillin+Streptavidin (Gibco cat. # 25030-024, 1:50), L-Glutamine 2 mM, and 1000 units/ml recombinant human IFN-gamma (Preprotech catalogue #300-02)] to a density of 1×10^6 cells/ml, and 50 ul/well dispensed to 384-well clear Greiner polypropylene plates containing 0.25 μl DMSO or test compound in 0.25 μl DMSO. […] Plates were incubated for 24 h at 37° C. in 5% CO2.
A multi-isoform immunoassay was used to quantify IFN-α in PBMC supernatants. Rabbit polyclonal antibody against human IFN-α (catalogue number 31101, Stratech Scientific) was diluted 1:10000 in assay buffer (RPMI 1640 containing 10% fetal calf serum, Invitrogen) and 20 μl was added to each well of an MSD (Meso-Scale Discovery) single small-spot 384-well GAR (goat anti-rabbit antibody coated) plate. The plate was incubated for 1 h at room temperature with vigorous shaking. Following three washes with PBS, 20 μl of cell supernatant were added to each well of the plate. The plate was then incubated for 1 h at room temperature with vigorous shaking. A pair of monoclonal antibodies to IFN-α (catalogue numbers 21100 and 21112, Stratech Scientific) were labelled with sulfo-TAG (MSD), diluted 1:1000 in assay buffer and 20 μl added to each well of the plate. The plate was further incubated for 1 h at room temperature with vigorous shaking. Following three washes with PBS, 30 μl of ×2 T buffer (MSD) was added to each well and the plate was read on an MSD Sector 6000 plate reader.
Data were normalised to internal plate controls of 1 uM resiquimod (n=16) and DMSO (n=16). pEC50 values were derived by 4-parameter curve fit with IRLS in ActivityBase, from 11-point, two-fold serial dilution of test compounds.

Structure (SMILES) | EC50 [µM]
CCCCNc1nc(N)c2[nH]c(=O)n(CCCN3CCN(C(C)(C)C)CC3)c2n1 [Example 22, 6-Amino-2-(butylamino)-9-{3-[4-(1,1-dimethylethyl)-1-piperazinyl]propyl}-7,9-dihydro-8H-purin-8-one] | < 3.16
CCCCOc1nc(N)c2[nH]c(=O)n(CCCCCN3CCN(CC)CC3)c2n1 [Example 47, 6-Amino-2-(butyloxy)-9-[5-(4-ethyl-1-piperazinyl)pentyl]-7,9-dihydro-8H-purin-8-one] | < 3.16
CCCCNc1nc(N)c2[nH]c(=O)n(CCN3CCN(C)CC3)c2n1 [Example 3, 6-Amino-2-(butylamino)-9-[2-(4-methyl-1-piperazinyl)ethyl]-7,9-dihydro-8H-purin-8-one] | < 3.16
CCC[C@H](C)Nc1nc(N)c2[nH]c(=O)n(CCCCN3CCN(C(C)C)CC3)c2n1 [Example 75, 6-Amino-2-{[(1S)-1-methylbutyl]amino}-9-{4-[4-(1-methylethyl)-1-piperazinyl]butyl}-7,9-dihydro-8H-purin-8-one] | < 3.16
CCCCOc1nc(N)c2[nH]c(=O)n(CCCN3CCN(C(C)C)CC3)c2n1 [Example 9, 6-Amino-2-(butyloxy)-9-{3-[4-(1-methylethyl)-1-piperazinyl]propyl}-7,9-dihydro-8H-purin-8-one] | < 3.16
CCCCOc1nc(N)c2[nH]c(=O)n(CCCN3CCN(C4CCCCC4)CC3)c2n1 [Example 15, 6-Amino-2-(butyloxy)-9-[3-(4-cyclohexyl-1-piperazinyl)propyl]-7,9-dihydro-8H-purin-8-one] | < 3.16
CCCCNc1nc(N)c2[nH]c(=O)n(CCN3CCN(C4CCCCC4)CC3)c2n1 [Example 5, 6-Amino-2-(butylamino)-9-[2-(4-cyclohexyl-1-piperazinyl)ethyl]-7,9-dihydro-8H-purin-8-one] | < 3.16
CCCCNc1nc(N)c2[nH]c(=O)n(CCCCN3CCN(CCCC)CC3)c2n1 [Example 39, 6-Amino-2-(butylamino)-9-[4-(4-butyl-1-piperazinyl)butyl]-7,9-dihydro-8H-purin-8-one] | < 3.16
CCCCNc1nc(N)c2[nH]c(=O)n(CCCN3CCN(CCCC)CC3)c2n1 [Example 20, 6-Amino-2-(butylamino)-9-[3-(4-butyl-1-piperazinyl)propyl]-7,9-dihydro-8H-purin-8-one] | < 3.16
CCC[C@H](C)Oc1nc(N)c2[nH]c(=O)n(CCCCCN3CCNCC3)c2n1 [Example 49, 6-Amino-2-{[(1S)-1-methylbutyl]oxy}-9-[5-(1-piperazinyl)pentyl]-7,9-dihydro-8H-purin-8-one] | < 3.16
CCCCNc1nc(N)c2[nH]c(=O)n(CCCCN3CCN(C4CCCC4)CC3)c2n1 [Example 43, 6-Amino-2-(butylamino)-9-[4-(4-cyclopentyl-1-piperazinyl)butyl]-7,9-dihydro-8H-purin-8-one] | < 3.16
CCCCOc1nc(N)c2[nH]c(=O)n(CCCCN3CCNCC3)c2n1 [Example 67, 6-Amino-2-(butyloxy)-9-[4-(1-piperazinyl)butyl]-7,9-dihydro-8H-purin-8-one] | < 3.16
CCCCOc1nc(N)c2[nH]c(=O)n(CCCN3CCN(CC)CC3)c2n1 [Example 7, 6-Amino-2-(butyloxy)-9-[3-(4-ethyl-1-piperazinyl)propyl]-7,9-dihydro-8H-purin-8-one] | < 3.16
CCCCOc1nc(N)c2[nH]c(=O)n(CCCCCCN3CCN(C)CC3)c2n1 [Example 55, 6-Amino-2-(butyloxy)-9-[6-(4-methyl-1-piperazinyl)hexyl]-7,9-dihydro-8H-purin-8-one] | < 3.16
CC(C)N1CCN(CCCCn2c(=O)[nH]c3c(N)nc(OC4CCC4)nc32)CC1 [Example 71, 6-Amino-2-(cyclobutyloxy)-9-{4-[4-(1-methylethyl)-1-piperazinyl]butyl}-7,9-dihydro-8H-purin-8-one] | < 3.16
CCCCOc1nc(N)c2[nH]c(=O)n(CCCN3CCN(C(C)(C)C)CC3)c2n1 [Example 12, 6-Amino-2-(butyloxy)-9-{3-[4-(1,1-dimethylethyl)-1-piperazinyl]propyl}-7,9-dihydro-8H-purin-8-one] | < 3.16

Structure (SMILES) | EC50 [µM]
CCCCOc1nc(N)c2[nH]c(=O)n(CCCN3CCN(CCCC)CC3)c2n1 [Example 10, 6-Amino-2-(butyloxy)-9-[3-(4-butyl-1-piperazinyl)propyl]-7,9-dihydro-8H-purin-8-one] | < 3.16
CCCCOc1nc(N)c2[nH]c(=O)n(CCCCCN3CCN(CC4CCCC4)CC3)c2n1 [Example 66, 6-Amino-2-(butyloxy)-9-{5-[4-(cyclopentylmethyl)-1-piperazinyl]pentyl}-7,9-dihydro-8H-purin-8-one] | < 3.16
CCCCOc1nc(N)c2[nH]c(=O)n(CCCN3CCN(CC(C)C)CC3)c2n1 [Example 11, 6-Amino-2-(butyloxy)-9-{3-[4-(2-methylpropyl)-1-piperazinyl]propyl}-7,9-dihydro-8H-purin-8-one] | < 3.16
CCCCOc1nc(N)c2[nH]c(=O)n(CCCCN3CCN(C4CCCCC4)CC3)c2n1 [Example 35, 6-Amino-2-(butyloxy)-9-[4-(4-cyclohexyl-1-piperazinyl)butyl]-7,9-dihydro-8H-purin-8-one] | < 3.16
CCCCOc1nc(N)c2[nH]c(=O)n(CCN3CCN(C4CCCCC4)CC3)c2n1 [Example 2, 6-Amino-2-(butyloxy)-9-[2-(4-cyclohexyl-1-piperazinyl)ethyl]-7,9-dihydro-8H-purin-8-one dihydrochloride salt] | < 3.16
CCCCNc1nc(N)c2[nH]c(=O)n(CCCCN3CCN(CC(C)C)CC3)c2n1 [Example 40, 6-Amino-2-(butylamino)-9-{4-[4-(2-methylpropyl)-1-piperazinyl]butyl}-7,9-dihydro-8H-purin-8-one] | < 3.16
CCC[C@H](C)Oc1nc(N)c2[nH]c(=O)n(CCCCCN3CCN(C)CC3)c2n1 [Example 50, 6-Amino-2-{[(1S)-1-methylbutyl]oxy}-9-[5-(4-methyl-1-piperazinyl)pentyl]-7,9-dihydro-8H-purin-8-one] | < 3.16
CCCCNc1nc(N)c2[nH]c(=O)n(CCCCN3CCN(C(C)C)CC3)c2n1 [Example 38, 6-Amino-2-(butylamino)-9-{4-[4-(1-methylethyl)-1-piperazinyl]butyl}-7,9-dihydro-8H-purin-8-one] | < 3.16
CCCCOc1nc(N)c2[nH]c(=O)n(CCCN3CCN(C4CCCC4)CC3)c2n1 [Example 14, 6-Amino-2-(butyloxy)-9-[3-(4-cyclopentyl-1-piperazinyl)propyl]-7,9-dihydro-8H-purin-8-one] | < 3.16
CCC[C@H](C)Oc1nc(N)c2[nH]c(=O)n(CCCCCN3CCN(CC)CC3)c2n1 [Example 51, 6-Amino-9-[5-(4-ethyl-1-piperazinyl)pentyl]-2-{[(1S)-1-methylbutyl]oxy}-7,9-dihydro-8H-purin-8-one] | < 3.16
CCCCNc1nc(N)c2[nH]c(=O)n(CCCN3CCN(C(C)C)CC3)c2n1 [Example 19, 6-Amino-2-(butylamino)-9-{3-[4-(1-methylethyl)-1-piperazinyl]propyl}-7,9-dihydro-8H-purin-8-one] | < 3.16
CCCCNc1nc(N)c2[nH]c(=O)n(CCCCN3CCN(CC)CC3)c2n1 [Example 36, 6-Amino-2-(butylamino)-9-[4-(4-ethyl-1-piperazinyl)butyl]-7,9-dihydro-8H-purin-8-one] | < 3.16
CCCCOc1nc(N)c2[nH]c(=O)n(CCCN3CCN(CCC)CC3)c2n1 [Example 8, 6-Amino-2-(butyloxy)-9-[3-(4-propyl-1-piperazinyl)propyl]-7,9-dihydro-8H-purin-8-one] | < 3.16
CC(C)Oc1nc(N)c2[nH]c(=O)n(CCCCCN3CCN(C(C)C)CC3)c2n1 [Example 70, 6-Amino-2-[(1-methylethyl)oxy]-9-{5-[4-(1-methylethyl)-1-piperazinyl]pentyl}-7,9-dihydro-8H-purin-8-one] | < 3.16
CCC[C@@H](C)Nc1nc(N)c2[nH]c(=O)n(CCCCN3CCN(C(C)C)CC3)c2n1 [Example 74, 6-Amino-2-{[(1R)-1-methylbutyl]amino}-9-{4-[4-(1-methylethyl)-1-piperazinyl]butyl}-7,9-dihydro-8H-purin-8-one] | < 3.16
CCCCOc1nc(N)c2[nH]c(=O)n(CCCCN3CCN(CCCC)CC3)c2n1 [Example 30, 6-Amino-2-(butyloxy)-9-[4-(4-butyl-1-piperazinyl)butyl]-7,9-dihydro-8H-purin-8-one] | < 3.16
